One assay has as its target T1, human σ2/TMEM97 receptor (Homo sapiens, UniProt Q5BJF2).
T1 construct: expressed in transfected cells; host or cells: HEK-293
The experiment in a line: Binding assay to human σ2/TMEM97 receptor ([3H]-DTG, transfected HEK-293 membranes). To be noted: class scale, read-out: Binding σ-2 Ki. As for the experimental part: Transfected HEK-293 membranes (15 μg) were incubated with 10 nM [^3H]-1,3-Di-o-tolylguanidine (DTG) in assay buffer containing Tris-HCl 50 mM at pH 8.0. NSB (non-specific binding) was measured by adding 10 μM haloperidol. The binding of the test compound was measured at either one concentration (% inhibition at 1 or 10 μM) or five different concentrations to determine affinity values (Ki). Plates were incubated at 25° C. for 120 minutes. After the incubation period, the reaction mix was transferred to MultiScreen HTS, FC plates (Millipore), filtered and washed 3 times with ice-cold 10 mM Tris-HCL (pH 8.0). Filters were dried and counted at approximately 40% efficiency in a MicroBeta scintillation counter (Perkin-Elmer) using EcoScint liquid scintillation cocktail.

Another assay has as its target T2, human σ1 receptor (Homo sapiens, UniProt Q99720).
T2 construct: expressed in transfected cells; host or cells: HEK-293
Kind of assay: Human σ1 receptor radioligand assay ([3H](+)-pentazocine, transfected HEK-293 membranes). The conditions noted are these: class scale, read-out: Binding σ-1 Ki. As for the experimental part: Transfected HEK-293 membranes (7 μg) were incubated with 5 nM of [^3H](+)-pentazocine in assay buffer containing Tris-HCl 50 mM at pH 8. NBS (non-specific binding) was measured by adding 10 μM haloperidol. The binding of the test compound was measured at either one concentration (% inhibition at 1 or 10 μM) or five different concentrations to determine affinity values (Ki). Plates were incubated at 37° C. for 120 minutes. After the incubation period, the reaction mix was then transferred to MultiScreen HTS, FC plates (Millipore), filtered and plates were washed 3 times with ice-cold 10 mM Tris-HCL (pH7.4). Filters were dried and counted at approximately 40% efficiency in a MicroBeta scintillation counter (Perkin-Elmer) using EcoScint liquid scintillation cocktail.

For 28 compounds, Ki results are on record in patent US20240239781A1, “1H-PYRAZOLE DERIVATIVES AS SIGMA LIGANDS” (ACONDICIONAMIENTO TARRASENSE, priority 2021, published 2024).

Structures are written as SMILES. Some results are limits rather than exact numbers.

T2 sequence (Q99720 whole entry): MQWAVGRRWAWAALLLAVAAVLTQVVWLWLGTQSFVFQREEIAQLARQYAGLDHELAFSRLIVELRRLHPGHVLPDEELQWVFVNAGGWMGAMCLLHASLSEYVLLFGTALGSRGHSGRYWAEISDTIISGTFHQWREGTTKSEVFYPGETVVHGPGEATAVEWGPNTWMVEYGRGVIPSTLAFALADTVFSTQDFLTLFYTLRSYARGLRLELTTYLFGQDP
T1 sequence (Q5BJF2 whole entry): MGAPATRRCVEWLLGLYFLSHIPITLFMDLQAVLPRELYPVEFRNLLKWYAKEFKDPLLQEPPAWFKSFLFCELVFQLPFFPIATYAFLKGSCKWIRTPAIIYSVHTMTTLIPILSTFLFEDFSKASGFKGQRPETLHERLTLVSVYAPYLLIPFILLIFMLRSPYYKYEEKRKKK

Turning to `Cc1cc(-c2nn(C)c(Cl)c2CN2CCC(CNCCC(C)(C)C)C2)no1` (centres unmarked) [Example 1, N-((1-((5-Chloro-1-methyl-3-(5-methylisoxazol-3-yl)-1H-pyrazol-4-yl)methyl)pyrrolidin-3-yl)methyl)-3,3-dimethylbutan-1-amine], the Ki on human σ2/TMEM97 receptor was more than 1000 nM; at human σ1 receptor, 100 to 500 nM.
As for `Cc1cc(-c2nn(C)c(Cl)c2CN2CCCCC(NCCC(C)C)C2)no1` (centres unmarked) [Example 2, 1-((5-Chloro-1-methyl-3-(5-methylisoxazol-3-yl)-1H-pyrazol-4-yl)methyl)-N-isopentylazepan-3-amine], the figures for the Ki at human σ2/TMEM97 receptor and on human σ1 receptor were more than 1000 nM and 500 to 1000 nM, respectively.
Turning to `Cc1cc(-c2nn(C)c(Cl)c2CN2CCCCC(NCCc3ccccc3)C2)no1` (centres unmarked) [Example 3, 1-((5-Chloro-1-methyl-3-(5-methylisoxazol-3-yl)-1H-pyrazol-4-yl)methyl)-N-phenethylazepan-3-amine], the results for the Ki at human σ2/TMEM97 receptor and at human σ1 receptor were more than 1000 nM and 500 to 1000 nM, respectively.
As to `Cc1cc(-c2nn(C)c(Cl)c2CN2CCCCC(NCC3CCOCC3)C2)no1` (centres unmarked) [Example 4, 1-((5-Chloro-1-methyl-3-(5-methylisoxazol-3-yl)-1H-pyrazol-4-yl)methyl)-N-((tetrahydro-2H-pyran-4-yl)methyl)azepan-3-amine], the results for the Ki on human σ2/TMEM97 receptor and on human σ1 receptor were 500 to 1000 nM and more than 1000 nM, respectively.
For `Cc1cc(-c2nn(C)c(Cl)c2CN2CCC[C@@H](NCCC(C)C)C2)no1` [Example 5, (R)-1-((5-Chloro-1-methyl-3-(5-methylisoxazol-3-yl)-1H-pyrazol-4-yl)methyl)-N-isopentylpiperidin-3-amine], the Ki was in the range of 100 to 500 nM at human σ2/TMEM97 receptor and 500 to 1000 nM at human σ1 receptor.
The like results for `Cc1cc(-c2nn(C)c(Cl)c2CN2CCC[C@H](NCCC(C)C)C2)no1` [Example 6, (S)-1-((5-Chloro-1-methyl-3-(5-methylisoxazol-3-yl)-1H-pyrazol-4-yl)methyl)-N-isopentylpiperidin-3-amine] were, in that order, more than 1000 nM and 100 to 500 nM.
In the case of `Cc1cc(-c2nn(C)c(Cl)c2CN2CCC[C@H](NCCc3ccccc3)C2)no1` [Example 7, (S)-1-((5-Chloro-1-methyl-3-(5-methylisoxazol-3-yl)-1H-pyrazol-4-yl)methyl)-N-phenethylpiperidin-3-amine], the Ki at human σ2/TMEM97 receptor is more than 1000 nM; at human σ1 receptor, 100 to 500 nM.
With `Cc1cc(-c2nn(C)c(Cl)c2CN2CCCCC(NCCC(C)(C)C)C2)no1` (centres unmarked) [Example 8, 1-((5-Chloro-1-methyl-3-(5-methylisoxazol-3-yl)-1H-pyrazol-4-yl)methyl)-N-(3,3-dimethylbutyl)azepan-3-amine], the Ki lay in the range of 500 to 1000 nM at human σ2/TMEM97 receptor and 100 to 500 nM on human σ1 receptor.
With `CCCCNC1CCCCN(Cc2c(-c3cc(C)on3)nn(C)c2Cl)C1` (centres unmarked) [Example 9, N-Butyl-1-((5-chloro-1-methyl-3-(5-methylisoxazol-3-yl)-1H-pyrazol-4-yl)methyl)azepan-3-amine], the Ki was 500 to 1000 nM on human σ2/TMEM97 receptor and more than 1000 nM at human σ1 receptor.
For `Cc1cc(-c2nn(C)c(Cl)c2CN2CCCC[C@@H](NCCC(C)C)C2)no1` [Example 10, (R)-1-((5-Chloro-1-methyl-3-(5-methylisoxazol-3-yl)-1H-pyrazol-4-yl)methyl)-N-isopentylazepan-3-amine], the Ki at human σ2/TMEM97 receptor and at human σ1 receptor was 100 to 500 nM throughout.
In the case of `Cc1cc(-c2nn(C)c(Cl)c2CN2CCC(NCCC(C)C)C2)no1` (centres unmarked) [Example 11, 1-((5-Chloro-1-methyl-3-(5-methylisoxazol-3-yl)-1H-pyrazol-4-yl)methyl)-N-isopentylpyrrolidin-3-amine], the Ki at human σ2/TMEM97 receptor lay within 100 to 500 nM; on human σ1 receptor, 500 to 1000 nM.
Turning to `Cc1cc(-c2nn(C)c(Cl)c2CN2CCCC[C@H](NCCC(C)C)C2)no1` [Example 12, (S)-1-((5-Chloro-1-methyl-3-(5-methylisoxazol-3-yl)-1H-pyrazol-4-yl)methyl)-N-isopentylazepan-3-amine], the Ki at human σ2/TMEM97 receptor is more than 1000 nM; on human σ1 receptor, 100 to 500 nM.
On to `Cc1cc(-c2nn(C)c(Cl)c2CN2CCC(NCCC(C)(C)C)C2)no1` (centres unmarked) [Example 13, 1-((5-Chloro-1-methyl-3-(5-methylisoxazol-3-yl)-1H-pyrazol-4-yl)methyl)-N-(3,3-dimethylbutyl)pyrrolidin-3-amine], for which the Ki on human σ2/TMEM97 receptor and at human σ1 receptor was 100 to 500 nM throughout.
Take `CCn1nc(-c2cc(C)on2)c(CN2CCCCC(NCCC(C)C)C2)c1Cl` (centres unmarked) [Example 14, 1-((5-Chloro-1-ethyl-3-(5-methylisoxazol-3-yl)-1H-pyrazol-4-yl)methyl)-N-isopentylazepan-3-amine]: the Ki on human σ2/TMEM97 receptor was more than 1000 nM; at human σ1 receptor, 100 to 500 nM.
For `CC(C)c1cc(-c2nn(C)c(Cl)c2CN2CCCCC(NCCC(C)(C)C)C2)no1` (centres unmarked) [Example 15, 1-((5-Chloro-3-(5-isopropylisoxazol-3-yl)-1-methyl-1H-pyrazol-4-yl)methyl)-N-(3,3-dimethylbutyl)azepan-3-amine], in that order: more than 1000 nM and 100 to 500 nM.
Regarding `Cn1nc(-c2cc(C3CC3)on2)c(CN2CCCCC(NCCC(C)(C)C)C2)c1Cl` (centres unmarked) [Example 16, 1-((5-Chloro-3-(5-cyclopropylisoxazol-3-yl)-1-methyl-1H-pyrazol-4-yl)methyl)-N-(3,3-dimethylbutyl)azepan-3-amine], the Ki on human σ2/TMEM97 receptor was more than 1000 nM; at human σ1 receptor it was 100 to 500 nM.
Regarding `CC(C)CCNC1CCCCN(Cc2c(-c3cc(C(C)C)on3)nn(C)c2Cl)C1` (centres unmarked) [Example 17, 1-((5-Chloro-3-(5-isopropylisoxazol-3-yl)-1-methyl-1H-pyrazol-4-yl)methyl)-N-isopentylazepan-3-amine], the Ki is more than 1000 nM on human σ2/TMEM97 receptor and 100 to 500 nM on human σ1 receptor.
`Cc1cc(-c2nn(-c3ccccc3)c(Cl)c2CN2CCCCC(NCCC(C)C)C2)no1` (centres unmarked) [Example 18, 1-((5-Chloro-3-(5-methylisoxazol-3-yl)-1-phenyl-1H-pyrazol-4-yl)methyl)-N-isopentylazepan-3-amine]: the Ki is more than 1000 nM on human σ2/TMEM97 receptor and 100 to 500 nM at human σ1 receptor.
The like results for `CC(C)CCNC1CCCCN(Cc2c(-c3cc(C4CC4)on3)nn(C)c2Cl)C1` (centres unmarked) [Example 19, 1-((5-Chloro-3-(5-cyclopropylisoxazol-3-yl)-1-methyl-1H-pyrazol-4-yl)methyl)-N-isopentylazepan-3-amine] were, in that order, more than 1000 nM and 500 to 1000 nM.
Take `CCc1cc(-c2nn(C)c(Cl)c2CN2CCCCC(NCCC(C)(C)C)C2)no1` (centres unmarked) [Example 20, 1-((5-Chloro-3-(5-ethylisoxazol-3-yl)-1-methyl-1H-pyrazol-4-yl)methyl)-N-(3,3-dimethylbutyl)azepan-3-amine]: the Ki at human σ2/TMEM97 receptor and at human σ1 receptor was 100 to 500 nM each time.
For `CCc1cc(-c2nn(C)c(Cl)c2CN2CCCCC(NCCC(C)C)C2)no1` (centres unmarked) [Example 21, 1-((5-Chloro-3-(5-ethylisoxazol-3-yl)-1-methyl-1H-pyrazol-4-yl)methyl)-N-isopentylazepan-3-amine], the Ki lay within 100 to 500 nM on human σ2/TMEM97 receptor and 500 to 1000 nM on human σ1 receptor.
For `CCn1nc(-c2cc(C)on2)c(CN2CCCCC(NCCC(C)(C)C)C2)c1Cl` (centres unmarked) [Example 22, 1-((5-Chloro-1-ethyl-3-(5-methylisoxazol-3-yl)-1H-pyrazol-4-yl)methyl)-N-(3,3-dimethylbutyl)azepan-3-amine], the Ki on human σ2/TMEM97 receptor and at human σ1 receptor was 100 to 500 nM each time.
For `Cc1cc(-c2nn(C)c(Cl)c2CN2CCCC(NCCC(C)(C)C)CC2)no1` (centres unmarked) [Example 23, 1-((5-Chloro-1-methyl-3-(5-methylisoxazol-3-yl)-1H-pyrazol-4-yl)methyl)-N-(3,3-dimethylbutyl)azepan-4-amine], the Ki on human σ2/TMEM97 receptor was less than 100 nM; at human σ1 receptor, 100 to 500 nM.
For `Cc1cc(-c2nn(C)c(Cl)c2CN2CCCC(NCCC(C)C)CC2)no1` (centres unmarked) [Example 24, 1-((5-Chloro-1-methyl-3-(5-methylisoxazol-3-yl)-1H-pyrazol-4-yl)methyl)-N-isopentylazepan-4-amine], in that order: less than 100 nM and more than 1000 nM.
For `Cn1nc(-c2ccccn2)c(CN2CCCCC(NCCC(C)(C)C)C2)c1Cl` (centres unmarked) [Example 25, 1-((5-Chloro-1-methyl-3-(pyridin-2-yl)-1H-pyrazol-4-yl)methyl)-N-(3,3-dimethylbutyl)azepan-3-amine], in that order: more than 1000 nM and less than 100 nM.
For `CC(C)CCNC1CCCCN(Cc2c(-c3ccccn3)nn(C)c2Cl)C1` (centres unmarked) [Example 26, 1-((5-Chloro-1-methyl-3-(pyridin-2-yl)-1H-pyrazol-4-yl)methyl)-N-isopentylazepan-3-amine], in that order: more than 1000 nM and 500 to 1000 nM.
As to `Cc1conc1-c1nn(C)c(Cl)c1CN1CCCCC(NCCC(C)(C)C)C1` (centres unmarked) [Example 27, 1-((5-Chloro-1-methyl-3-(4-methylisoxazol-3-yl)-1H-pyrazol-4-yl)methyl)-N-(3,3-dimethylbutyl)azepan-3-amine], the Ki on human σ2/TMEM97 receptor was less than 100 nM; at human σ1 receptor it was 100 to 500 nM.
Consider `Cc1conc1-c1nn(C)c(Cl)c1CN1CCCCC(NCCC(C)C)C1` (centres unmarked) [Example 28, 1-((5-Chloro-1-methyl-3-(4-methylisoxazol-3-yl)-1H-pyrazol-4-yl)methyl)-N-isopentylazepan-3-amine], for which the Ki on human σ2/TMEM97 receptor and at human σ1 receptor was 100 to 500 nM throughout.

Usually Ki stands for a measure of affinity in units of concentration, obtained from inhibition or displacement.
